Measurements published in ChEMBL document CHEMBL3868606, “Novel 5-nitropyrimidine derivatives bearing endo-azabicyclic alcohols/amines as potent GPR119 agonists” (Bioorg Med Chem, 2017).
pEC50: −log10 of the molar value.

Tests used:
[1] = biological target: T1, Glucose-dependent insulinotropic receptor (Homo sapiens) (UniProt Q8TDV5); experiment: Agonist activity at human GPR119 expressed in HEK293 cells assessed as stimulation of cAMP level measured after 60 mins by HTRF assay relative to OEA; assay type: functional, cell-based
T1 sequence (whole entry): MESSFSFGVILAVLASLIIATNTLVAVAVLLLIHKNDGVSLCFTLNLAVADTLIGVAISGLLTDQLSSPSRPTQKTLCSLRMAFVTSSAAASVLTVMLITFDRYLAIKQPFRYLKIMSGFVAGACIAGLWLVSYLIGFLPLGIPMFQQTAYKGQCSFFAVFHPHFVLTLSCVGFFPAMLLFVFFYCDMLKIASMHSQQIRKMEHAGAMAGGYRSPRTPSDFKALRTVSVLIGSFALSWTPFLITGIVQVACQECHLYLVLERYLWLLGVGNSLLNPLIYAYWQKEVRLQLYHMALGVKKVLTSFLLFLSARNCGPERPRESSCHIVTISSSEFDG

[2] = biological target: T2, Glucose-dependent insulinotropic receptor (Homo sapiens, UniProt Q8TDV5); experiment: Agonist activity at human GPR119 expressed in HEK293 cells assessed as stimulation of cAMP level measured after 60 mins by HTRF assay; assay type: functional, cell-based
T2 sequence (Q8TDV5 whole entry): T1 sequence (whole entry)

| Structure (SMILES) | Emax [1] | pEC50 [2] |
| --- | --- | --- |
| CS(=O)(=O)c1ccc(Nc2ncnc(NC3C[C@H]4CC[C@H](C3)N4S(=O)(=O)c3ccc(F)cc3)c2[N+](=O)[O-])c(F)c1 (some centres undefined) | 24.8% | < 5.70 |
| CS(=O)(=O)c1ccc(Nc2ncnc(OC3C[C@H]4CC[C@H](C3)N4S(=O)(=O)c3ccc(F)cc3)c2[N+](=O)[O-])c(F)c1 (some centres undefined) | 88.8% | 8.46 |
| CC(C)OC(=O)N1[C@@H]2CC[C@@H]1CC(Oc1ncnc(Nc3ccc(S(C)(=O)=O)cc3F)c1[N+](=O)[O-])C2 (relative stereo) | 103% | 9.22 |
| CS(=O)(=O)c1ccc(Nc2ncnc(NC3C[C@H]4CC[C@H](C3)N4S(C)(=O)=O)c2[N+](=O)[O-])c(F)c1 (relative stereo) | 49.5% | < 5.70 |
| CC(C)(C)OC(=O)N1[C@@H]2CC[C@@H]1CC(Oc1ncnc(Oc3ccccc3Cl)c1[N+](=O)[O-])C2 (relative stereo) | 89.8% | 7.35 |
| CS(=O)(=O)c1ccc(Nc2ncnc(OC3C[C@H]4CC[C@H](C3)N4S(C)(=O)=O)c2[N+](=O)[O-])c(F)c1 (relative stereo) | 117% | 8.80 |
| CC(C)(C)OC(=O)N1[C@@H]2CC[C@@H]1CC(Nc1ncnc(Nc3ccc(C#N)cc3F)c1[N+](=O)[O-])C2 (relative stereo) | 114% | 8.89 |
| CC(C)(C)OC(=O)N1[C@@H]2CC[C@@H]1CC(Nc1ncnc(Nc3ccc(S(C)(=O)=O)cc3F)c1[N+](=O)[O-])C2 (relative stereo) | 99% | 8.82 |
| CS(=O)(=O)c1ccc(Nc2ncnc(NC3C[C@H]4CC[C@H](C3)N4C(=O)OCC3CC3)c2[N+](=O)[O-])c(F)c1 (relative stereo) | 25.1% | < 5.70 |
| CCOC(=O)N1[C@@H]2CC[C@@H]1CC(Nc1ncnc(Nc3ccc(S(C)(=O)=O)cc3F)c1[N+](=O)[O-])C2 (relative stereo) | 32.5% | < 5.70 |
| CC(C)OC(=O)N1[C@@H]2CC[C@@H]1CC(Nc1ncnc(Nc3ccc(S(C)(=O)=O)cc3F)c1[N+](=O)[O-])C2 (relative stereo) | 54.5% | 8.21 |
| CC(C)(C)OC(=O)N1[C@@H]2CC[C@@H]1CC(Nc1ncnc(Oc3ccccc3Cl)c1[N+](=O)[O-])C2 (relative stereo) | 37.2% | < 5.70 |
| CC(C)(C)OC(=O)N1[C@@H]2CC[C@@H]1CC(Oc1ncnc(Nc3ccc(S(C)(=O)=O)cc3F)c1[N+](=O)[O-])C2 (relative stereo) | 116% | 8.82 |
| CS(=O)(=O)c1ccc(Nc2ncnc(OC3C[C@H]4CC[C@H](C3)N4C(=O)OCC3CC3)c2[N+](=O)[O-])c(F)c1 (relative stereo) | 21.3% | < 5.70 |
| CC(C)(C)OC(=O)N1[C@@H]2CC[C@@H]1CC(Nc1ncnc(Nc3ccc(C#N)cc3Cl)c1[N+](=O)[O-])C2 (relative stereo) | 59% | 6.69 |
| CCOC(=O)N1[C@@H]2CC[C@@H]1CC(Oc1ncnc(Nc3ccc(S(C)(=O)=O)cc3F)c1[N+](=O)[O-])C2 (relative stereo) | 116% | 8.85 |
| CC(C)(C)OC(=O)N1[C@@H]2CC[C@@H]1CC(Nc1ncnc(Nc3ccccc3C#N)c1[N+](=O)[O-])C2 (relative stereo) | 46.2% | < 5.70 |
